Assay results as given in patent US7598258B2, “Quinoline derivatives and quinazoline derivatives inhibiting autophosphorylation of macrophage colony stimulating factor receptor” (Kirin Beer Kabushiki Kaisha, priority 2002, dated 2009).

What follows are compounds tested against T1, mouse c-fms (Mus musculus, UniProt P09581) (assay: Inhibition of c-fms autophosphorylation in macrophage-like cell line BAC-1.2F5 by M-CSF stimulation (ELISA)). Conditions: BAC-1.2F5 cells, human recombinant M-CSF 50 ng/ml, read-out: c-fms autophosphorylation 50% inhibitory concentration (IC50).
T1 construct: Macrophage-like cell line BAC-1.2F5 which expresses c-fms as a M-CSF receptor on cell membranes; endogenous in cells; host or cells: BAC-1.2F5 mouse macrophage-like cell line
T1 sequence (P09581 20-977): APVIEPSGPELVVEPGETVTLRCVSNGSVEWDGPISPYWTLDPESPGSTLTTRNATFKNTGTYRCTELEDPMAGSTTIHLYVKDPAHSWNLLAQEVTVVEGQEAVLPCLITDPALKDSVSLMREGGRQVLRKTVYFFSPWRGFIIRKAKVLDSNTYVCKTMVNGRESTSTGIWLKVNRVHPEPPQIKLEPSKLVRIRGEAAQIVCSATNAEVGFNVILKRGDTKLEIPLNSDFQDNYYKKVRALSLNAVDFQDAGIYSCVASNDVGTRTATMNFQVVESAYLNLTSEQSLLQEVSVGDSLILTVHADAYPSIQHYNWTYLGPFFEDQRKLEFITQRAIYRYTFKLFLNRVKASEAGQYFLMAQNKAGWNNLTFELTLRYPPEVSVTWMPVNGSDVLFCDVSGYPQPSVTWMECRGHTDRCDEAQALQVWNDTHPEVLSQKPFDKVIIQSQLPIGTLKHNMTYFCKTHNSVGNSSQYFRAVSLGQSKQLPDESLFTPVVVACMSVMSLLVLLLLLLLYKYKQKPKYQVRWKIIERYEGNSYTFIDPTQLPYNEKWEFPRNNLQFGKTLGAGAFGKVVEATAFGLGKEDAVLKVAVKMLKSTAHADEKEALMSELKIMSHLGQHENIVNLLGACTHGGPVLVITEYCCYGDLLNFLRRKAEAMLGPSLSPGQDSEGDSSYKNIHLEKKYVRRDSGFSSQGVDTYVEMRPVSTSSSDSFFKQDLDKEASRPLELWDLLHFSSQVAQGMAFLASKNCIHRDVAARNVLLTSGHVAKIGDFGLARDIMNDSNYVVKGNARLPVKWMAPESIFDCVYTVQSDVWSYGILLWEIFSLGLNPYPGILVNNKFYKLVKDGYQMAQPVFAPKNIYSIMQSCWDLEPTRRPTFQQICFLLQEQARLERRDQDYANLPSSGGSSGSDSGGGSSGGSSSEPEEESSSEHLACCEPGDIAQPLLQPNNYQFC
Assay type: cell-based
Method: Macrophage-like cell line BAC-1.2F5 which expresses c-fms as a M-CSF receptor on cell membranes (CLAUDIA M. et al., J. Cell. Physiol., 130, 420-427 (1987), “Isolation and Characterization of a Cloned Growth Factor Dependent Macrophage Cell Line, BAC1.2F5”) was cultured at 37° C. in a DMEM medium containing L-cell supernatant and 10% fetal calf serum (GIBCO BRL) in a 5% CO2 incubator until about 50 to 70% confluent. The harvested cells were inoculated into wells, each containing the same medium, in a collagen type I coat 96-well flat-bottom plate in an amount of 5.0×10^4 per well, and cultured at 37° C. for 12 hr. Thereafter, the medium was replaced with a DMEM medium containing a 0.1% fetal calf serum and cultured for 12 hr. Thereafter, a test compound dissolved in dimethyl sulfoxide was added to each well, and cells were incubated at 37° C. for one hr. Human recombinant M-CSF was added to a final concentration of 50 ng/ml, and cells were stimulated at 37° C. for 6 min. After the medium was removed, 50 μl of a solubilization buffer (20 mM HEPES (pH 7.4), 150 mM NaCl, 0.2% Triton X-100, 10% glycerol, 5 mM sodium orthovanadylate, 5 mM disodium ethylenediaminetetraacetate, and 2 mM Na4P2O7) was added thereto. The mixture was shaken at 4° C. for 2 hr to prepare a cell extract as an assay sample which was then used for an ELISA assay.
The plate for the ELISA assay was prepared as follows. Phosphate buffered saline (50 μl, pH 7.4) containing 5 μg/ml of anti-phospho-tyrosine antibody (PY20; Transduction Laboratories) was added to a microplate for ELISA (Maxisorp; purchased from NUNC), followed by standing at 4° C. overnight to be immobilized on the wells. Thereafter, each well was washed twice with 200 μl of a Ca- and Mg-free phosphate buffer containing 0.1% Tween-20 (hereinafter referred to as “PBS-T”), and 200 μl of a blocking solution (Dainippon Pharmaceutical Co. Ltd.: BlockAce) was added to each well, and the wells were then allowed to stand at room temperature for 2 hr for blocking.
Separately, phosphate buffered saline (50 μl, pH 7.4) containing 5 μg/ml of anti-phospho-tyrosine antibody (PY20; Transduction Laboratories) was added to a microplate for ELISA (Maxisorp; purchased from NUNC), followed by standing at 4° C. overnight to form a solid phase on the wells. After washing of the plate, 300 μl of a blocking solution was added, followed by standing at room temperature for 2 hr to perform blocking. After washing, the whole quantity of the cell extract was transferred to the wells, and the plate was then allowed to stand at 4° C. overnight. After washing, anti-c-fms antiserum (Upstate Biotechnology, Inc.) was allowed to react at room temperature for one hr, and, after washing, a peroxidase-labeled anti-rabbit Ig antibody (Amersham) was allowed to react at room temperature for one hr. After washing, a chromophoric substrate for peroxidase (Sumitomo Bakelite Co., Ltd.) was added thereto to initiate a reaction. After a suitable level of color development, a reaction termination solution was added to stop the reaction, and the absorbance at 450 nm was measured with a microplate reader. The c-fms phosphorylation activity for each well was determined by presuming the absorbance without the addition of the test compound and with the addition of M-CSF to be 100% c-fms phosphorylation activity and the absorbance without the addition of the test compound and M-CSF to be 0% c-fms phosphorylation activity. The concentration of the test compound was varied on several levels, the c-fms phosphorylation inhibitory rate was determined for each case, and the concentration of the test compound necessary for inhibiting 50% of c-fms phosphorylation (IC50) was calculated.

Row | SMILES | IC50
1 | COc1cc2nccc(Oc3ccc(NC(=O)NC(C)c4ccc(F)cc4)cc3)c2cc1OC (stereo not shown) [Example 1, N-{4-[(6,7-Dimethoxy-4-quinolyl)oxy]phenyl}-N′-[1-(4-fluorophenyl)ethyl]urea] | 2.4 nM
2 | COc1cc2nccc(Oc3ccc(NC(=O)NC(C)c4ccc(F)cc4)c(Cl)c3)c2cc1OC (stereo not shown) [Example 4, N-{2-Chloro-4-[(6,7-dimethoxy-4-quinolyl)oxy]phenyl}-N′-[1-(4-fluorophenyl)ethyl]urea] | 4 nM
3 | COc1cc2nccc(Oc3cc(C)c(NC(=O)N[C@H](C)c4ccc(F)cc4)cc3C)c2cc1OC [Example 9, N-{4-[(6,7-Dimethoxy-4-quinolyl)oxy]-2,5-dimethylphenyl}-N′-[(1R)-1-(4-fluorophenyl)ethyl]urea] | 17.4 nM
4 | COc1cc2nccc(Oc3ccc(NC(=O)N[C@@H](C)c4ccc(F)cc4)c(C)c3)c2cc1OC [Example 14, N-{4-[(6,7-Dimethoxy-4-quinolyl)oxy]-2-methylphenyl}-N′-[(1S)-1-(4-fluorophenyl)ethyl]urea] | 13 nM
5 | COc1cc(Oc2ccnc3cc(OC)c(OC)cc23)ccc1NC(=O)NC(C)c1ccc(F)cc1 (stereo not shown) [Example 16, N-{4-[(6,7-Dimethoxy-4-quinolyl)oxy]-2-methoxyphenyl}-N′-[1-(4-fluorophenyl)ethyl]urea] | 2 nM
6 | COc1cc2nccc(Oc3ccc(NC(=O)NC(C)c4ccc(F)cc4)c(C(F)(F)F)c3)c2cc1OC (stereo not shown) [Example 19, N-[4-[(6,7-Dimethoxy-4-quinolyl)oxy]-2-(trifluoromethyl)phenyl]-N′-[1-(4-fluorophenyl)ethyl]urea] | 8.1 nM
7 | COc1cc2nccc(Oc3ccc(NC(=O)N[C@@H](C)c4ccc(F)cc4)c(C(F)(F)F)c3)c2cc1OC [Example 20, N-[4-[(6,7-Dimethoxy-4-quinolyl)oxy]-2-(trifluoromethyl)phenyl]-N′-[(1S)-1-(4-fluorophenyl)ethyl]urea] | 6.2 nM
8 | COc1cc2nccc(Oc3ccc(NC(=O)N[C@H](C)c4ccc(F)cc4)c(C(F)(F)F)c3)c2cc1OC [Example 21, N-[4-[(6,7-Dimethoxy-4-quinolyl)oxy]-2-(trifluoromethyl)phenyl]-N′-[(1R)-1-(4-fluorophenyl)ethyl]urea] | 9.8 nM
9 | COc1cc2nccc(Oc3ccc(NC(=O)NC(C)c4ccc(F)cc4)cc3OC)c2cc1OC (stereo not shown) [Example 22, N-{4-[(6,7-Dimethoxy-4-quinolyl)oxy]-3-methoxyphenyl}-N′-[1-(4-fluorophenyl)ethyl]urea] | 7.7 nM
10 | COc1cc2nccc(Oc3ccc(NC(=O)N[C@@H](C)c4ccc(F)cc4)cc3OC)c2cc1OC [Example 23, N-{4-[(6,7-Dimethoxy-4-quinolyl)oxy]-3-methoxyphenyl}-N′-[(1S)-1-(4-fluorophenyl)ethyl]urea] | 10.2 nM
11 | COc1cc2nccc(Oc3ccc(NC(=O)N[C@H](C)c4ccc(F)cc4)cc3OC)c2cc1OC [Example 24, N-{4-[(6,7-Dimethoxy-4-quinolyl)oxy]-3-methoxyphenyl}-N′-[(1R)-1-(4-fluorophenyl)ethyl]urea] | 13.2 nM

Now from value to compound:

Row | IC50 | SMILES
12 | 2.2 nM | COc1cc2nccc(Oc3ccc(NC(=O)N[C@@H](C)c4ccc(F)cc4)c(Cl)c3)c2cc1OC [Example 5, N-{2-Chloro-4-[(6,7-dimethoxy-4-quinolyl)oxy]phenyl}-N′-[(1S)-1-(4-fluorophenyl)ethyl]urea]
13 | 6 nM | COc1cc2nccc(Oc3ccc(NC(=O)N[C@H](C)c4ccc(F)cc4)c(Cl)c3)c2cc1OC [Example 6, N-{2-Chloro-4-[(6,7-dimethoxy-4-quinolyl)oxy]phenyl}-N′-[(1R)-1-(4-fluorophenyl)ethyl]urea]
14 | 20.2 nM | COc1cc2nccc(Oc3cc(C)c(NC(=O)NC(C)c4ccc(F)cc4)cc3C)c2cc1OC (stereo not shown) [Example 7, N-{4-[(6,7-Dimethoxy-4-quinolyl)oxy]-2,5-dimethylphenyl}-N′-[1-(4-fluorophenyl)ethyl]urea]
15 | 22.5 nM | COc1cc2nccc(Oc3cc(C)c(NC(=O)N[C@@H](C)c4ccc(F)cc4)cc3C)c2cc1OC [Example 8, N-{4-[(6,7-Dimethoxy-4-quinolyl)oxy]-2,5-dimethylphenyl}-N′-[(1S)-1-(4-fluorophenyl)ethyl]urea]
16 | 7.1 nM | COc1cc2nccc(Oc3ccc(NC(=O)NC(C)c4ccc(F)cc4)cc3Cl)c2cc1OC (stereo not shown) [Example 10, N-{3-Chloro-4-[(6,7-dimethoxy-4-quinolyl)oxy]phenyl}-N′-[1-(4-fluorophenyl)ethyl]urea]
17 | 11.7 nM | COc1cc2nccc(Oc3ccc(NC(=O)N[C@@H](C)c4ccc(F)cc4)cc3Cl)c2cc1OC [Example 11, N-{3-Chloro-4-[(6,7-dimethoxy-4-quinolyl)oxy]phenyl}-N′-[(1S)-1-(4-fluorophenyl)ethyl]urea]
18 | 10.9 nM | COc1cc2nccc(Oc3ccc(NC(=O)N[C@H](C)c4ccc(F)cc4)cc3Cl)c2cc1OC [Example 12, N-{3-Chloro-4-[(6,7-dimethoxy-4-quinolyl)oxy]phenyl}-N′-[(1R)-1-(4-fluorophenyl)ethyl]urea]
19 | 6.1 nM | COc1cc2nccc(Oc3ccc(NC(=O)NC(C)c4ccc(F)cc4)c(C)c3)c2cc1OC (stereo not shown) [Example 13, N-{4-[(6,7-Dimethoxy-4-quinolyl)oxy]-2-methylphenyl}-N′-[1-(4-fluorophenyl)ethyl]urea]
20 | 5.7 nM | COc1cc2nccc(Oc3ccc(NC(=O)N[C@H](C)c4ccc(F)cc4)c(C)c3)c2cc1OC [Example 15, N-{4-[(6,7-Dimethoxy-4-quinolyl)oxy]-2-methylphenyl}-N′-[(1R)-1-(4-fluorophenyl)ethyl]urea]
21 | 3.9 nM | COc1cc(Oc2ccnc3cc(OC)c(OC)cc23)ccc1NC(=O)N[C@@H](C)c1ccc(F)cc1 [Example 17, N-{4-[(6,7-Dimethoxy-4-quinolyl)oxy]-2-methoxyphenyl}-N′-[(1S)-1-(4-fluorophenyl)ethyl]urea]
22 | 3.7 nM | COc1cc(Oc2ccnc3cc(OC)c(OC)cc23)ccc1NC(=O)N[C@H](C)c1ccc(F)cc1 [Example 18, N-{4-[(6,7-Dimethoxy-4-quinolyl)oxy]-2-methoxyphenyl}-N′-[(1R)-1-(4-fluorophenyl)ethyl]urea]
